Values joined by “and” are separate entries in the source; they are usually repeats but may differ in a detail not shown here. Equal values may be shown once. “Also recorded” adds a separate entry of the source.
How the values were obtained:
[1] = test system: adipocyte fatty acid-binding protein (aP2); test: Down-regulation of aP2 protein expression in LPS-induced THP-1 derived macrophages (Western blot); format: cell-based, human; settings: 5 μg/ml, 2 h pretreatment, LPS 100 ng/ml 16 h, normalized to actin
Procedure: The inventors also assessed the effect of α-mangostin and γ-mangostin on adipocyte fatty acid-binding protein aP2 expression in human monocytes-macrophage cells in a cell based in vitro model. In this experiment, THP-1 human monocyte-macrophage cells were pre-treated with 5 μg/ml of γ-mangostin or α-mangostin for 2 h and thereafter primed with LPS to induce the inflammatory response. The cellular proteins were extracted by cell lysis buffer and subjected to immuno-western blot to detect the modulation of expression of aP2 protein.
Down-regulation of aP2 protein expression by α-mangostin and γ-mangostin was evaluated in a cell based in vitro model. […] The protein content was measured by Coomassie blue based Bradford method and equal amount of cellular protein lysates (2 μg) was resolved in 15% SDS-Polyacrylamide gels. […] The aP2 protein expression was specifically detected by chemiluminescent substrate (Pierce, USA); detection of chemiluminescent bands and densitometric analyses were carried out on Kodak 4000 mM image station (supplied by Kodak, USA). The same nitrocellulose blots were stripped and re-probed with anti-actin antibody (Sigma Chemical CO, USA) and actin protein expression was recorded as an indication of equal protein loading in each lane. […]

potato 5-lipoxygenase = test: 5-Lipoxygenase enzyme inhibitory activity; format: biochemical; settings: for 5-Lipoxygenase inhibitory activity IC50 values: potato 5-lipoxygenase, linoleic acid substrate
Procedure: 5-Lipoxygenase enzyme inhibitory activity was measured using the method of Schewe et al. (Adv Enzymol, Vol 58: pp 191-272, 1986), modified by Reddanna et. al., (Methods of Enzymology, Vol 187: pp 268-277, 1990). The assay mixture contained 80 μM linoleic acid and sufficient amount of potato 5-lipoxygenase in 50 mM phosphate buffer (pH 6.3). The reaction was initiated by the addition of enzyme buffer mix to linoleic acid and the enzyme activity was monitored as the increase in absorbance at 234 nm. The reaction was monitored for 120 sec and the inhibitory potential of the test substances was measured by incubating various concentrations of test substances two minutes before the addition of linoleic acid. All assays were performed three times. The IC50 values were calculated from the plot drawn of the concentrations of test substances versus percentage inhibition.

TNF-α = test: Inhibition of LPS-induced TNF-α in THP-1 human monocytes (EIA); format: cell-based; settings: THP-1 cells, 2 h pretreatment, 100 ng/ml LPS 4 h
Procedure: Inhibition of Tumor necrosis factor-α (TNF-α) in vitro by α-mangostin and γ-mangostin: The anti-inflammatory activities of α-mangostin, γ-mangostin and composition-I were assessed in a cell based in vitro assay. Briefly, THP-1 human monocytes cells were washed and re-suspended in phenol red free Dulbecco's Modified Eagle's Medium (DMEM) supplemented with 1% fetal Bovine serum (FBS). Equal number of cells was added to each well of a 96-well TC plate and the cells were pretreated for 2 h with various concentrations of test substances (ranging from 0.5 to 50 μg/ml; solutions prepared in culture medium from a stock solution containing 50 mg/l mL DMSO of each test compound) of α-mangostin, γ-mangostin and composition-I. The inflammatory response was induced by treatment with 100 ng/ml of LPS for 4 h at 37° C. in presence of 5% CO2. The vehicle control culture wells received 0.1% DMSO in culture medium. The cell culture supernatants were collected and assessed for secretary pro-inflammatory cytokine, TNFα. The TNF-α concentration was quantitatively measured by highly specific and sensitive Enzyme Immuno Assay (EIA) kit supplied by R&D Systems, USA. The enzyme immuno assay was performed based on the protocol provided by the vendor. The inhibitory concentration for 50% inhibition (IC50) of TNF-α was determined from a plot drawn for ingredient concentration against TNF-α level.

Compound | Inhibition of LPS induced aP2 protein expression [1] | 5-Lipoxygenase inhibitory activity IC50 values (potato 5-lipoxygenase) | IC50 for TNFα (TNF-α) | Relative potency of O-demethylxanthone versus O-methyl counterpart (potato 5-lipoxygenase; comparison in words)
COc1c(O)cc2oc3cc(O)c(CC=C(C)C)c(O)c3c(=O)c2c1CC=C(C)C [α-mangostin] | inhibition of aP2 protein expression |  |  | 
COc1c(O)cc2oc3cc(O)c(CC=C(C)C)c(O)c3c(=O)c2c1CCC(C)(C)O [Garcinone D] |  | 5.7 µg/mL |  | 
CC(C)=CCc1c(O)cc2oc3cc(O)c(O)c(CC=C(C)C)c3c(=O)c2c1O [γ-mangostin] | more potent inhibitor of aP2 in vitro compared to α-mangostin; also recorded: inhibited the LPS induced aP2 expression more strongly compared to α-mangostin | 0.52 µg/mL | 3.32 µg/mL and 3.322 µg/mL | 
Garcinone C |  | 2.8 µg/mL |  | relatively higher potency compared to its natural O-methyl counterpart, garcinone D

From patent US8853261B2, “Nutraceutical composition from Garcinia mangostana” (Laila Nutraceuticals, priority 2008, dated 2014)
